Counter-ions that a name gives are not always drawn. Like-named read-outs stand apart in the source and are kept apart here.
Tests used:
α2A receptor = target: T1, α2A receptor (Homo sapiens, UniProt P08913); test: Competition binding, [3H]rauwolscine, human α2A receptor
T1 construct: host or cells: LM(tk-) cells, line L-α2A
T1 sequence (P08913 1-465): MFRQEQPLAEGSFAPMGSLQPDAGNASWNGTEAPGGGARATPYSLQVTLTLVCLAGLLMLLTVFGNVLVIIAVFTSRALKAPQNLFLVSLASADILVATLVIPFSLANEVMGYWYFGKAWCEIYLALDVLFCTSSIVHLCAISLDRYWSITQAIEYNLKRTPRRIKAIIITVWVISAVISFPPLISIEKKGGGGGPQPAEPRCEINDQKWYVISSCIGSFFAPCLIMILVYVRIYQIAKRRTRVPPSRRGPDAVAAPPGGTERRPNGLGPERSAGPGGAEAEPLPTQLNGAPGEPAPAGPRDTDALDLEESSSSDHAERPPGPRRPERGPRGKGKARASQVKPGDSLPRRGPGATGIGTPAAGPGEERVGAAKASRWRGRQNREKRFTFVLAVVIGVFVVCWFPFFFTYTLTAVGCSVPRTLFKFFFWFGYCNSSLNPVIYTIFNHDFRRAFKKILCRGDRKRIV
Outline: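 LM(tk−) lysates, stable α2A/α2B/α2C transfectants; 25 mM glycylglycine pH 7.6 (RT). [3H]rauwolscine 0.5 nM, equilibrium competition; NSB 10 μM phentolamine. GF/B filtration, cell harvester.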

[1] = target: T2, α1A Human Adrenergic Receptor (Homo sapiens, UniProt P25100); test: Radioligand binding, [3H]prazosin, cloned human α1A adrenergic receptor; conditions: pKi alpha-1 1a
T2 construct: The entire coding region of α1A (1719 bp); expressed in transfected cells
T2 sequence (P25100 1-572): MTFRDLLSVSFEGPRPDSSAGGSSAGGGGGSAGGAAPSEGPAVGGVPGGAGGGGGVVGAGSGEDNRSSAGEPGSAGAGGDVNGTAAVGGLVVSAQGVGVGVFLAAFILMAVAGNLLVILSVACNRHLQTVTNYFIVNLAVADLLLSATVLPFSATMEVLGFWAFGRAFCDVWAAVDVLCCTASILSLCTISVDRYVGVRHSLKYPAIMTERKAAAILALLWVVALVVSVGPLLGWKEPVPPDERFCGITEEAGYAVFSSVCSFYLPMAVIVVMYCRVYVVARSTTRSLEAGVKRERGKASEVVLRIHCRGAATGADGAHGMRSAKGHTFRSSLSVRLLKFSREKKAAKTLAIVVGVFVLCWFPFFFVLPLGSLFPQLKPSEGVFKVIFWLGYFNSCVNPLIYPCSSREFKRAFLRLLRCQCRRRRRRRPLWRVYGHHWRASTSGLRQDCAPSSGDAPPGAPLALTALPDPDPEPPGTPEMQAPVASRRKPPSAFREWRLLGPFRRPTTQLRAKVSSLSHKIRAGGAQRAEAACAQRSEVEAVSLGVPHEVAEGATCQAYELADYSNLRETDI
Outline: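 Membranes from LM(tk−) cells transfected with cloned human α1A receptor, prepared in 50 mM Tris-HCl, 1 mM MgCl2, 0.1% ascorbic acid pH 7.5, were incubated with 0.5 nM [3H]prazosin at 37° C for 20 min. Nonspecific binding was defined with 10 μM phentolamine; bound ligand was separated by GF/B filtration.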

[2] = target: T3, α1B Human Adrenergic Receptor (Homo sapiens, UniProt P35368); test: Radioligand binding, [3H]prazosin, cloned human α1B adrenergic receptor
T3 construct: The entire coding region of α1B (1563 bp); expressed in transfected cells
T3 sequence (P35368 1-520): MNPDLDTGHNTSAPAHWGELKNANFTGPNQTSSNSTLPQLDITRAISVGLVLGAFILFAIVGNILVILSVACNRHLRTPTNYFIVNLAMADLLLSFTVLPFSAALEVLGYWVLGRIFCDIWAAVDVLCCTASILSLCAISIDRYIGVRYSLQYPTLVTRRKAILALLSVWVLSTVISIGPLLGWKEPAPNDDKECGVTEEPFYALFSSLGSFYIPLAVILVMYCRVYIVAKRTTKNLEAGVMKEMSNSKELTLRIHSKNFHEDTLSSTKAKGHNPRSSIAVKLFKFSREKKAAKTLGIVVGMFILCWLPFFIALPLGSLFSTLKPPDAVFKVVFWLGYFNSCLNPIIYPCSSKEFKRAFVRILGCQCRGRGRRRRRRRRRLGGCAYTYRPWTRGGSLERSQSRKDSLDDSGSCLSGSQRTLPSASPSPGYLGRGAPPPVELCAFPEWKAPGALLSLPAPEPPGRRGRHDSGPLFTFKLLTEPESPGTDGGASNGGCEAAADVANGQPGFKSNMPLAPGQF
Outline: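 Membranes from stably transfected LM(tk−) cells, resuspended in 50 mM Tris-HCl, 1 mM MgCl2, 0.1% ascorbic acid, pH 7.5, were incubated with 0.5 nM [3H]prazosin for 20 min at 37° C. Nonspecific binding defined with 10 μM phentolamine; bound ligand separated by GF/B filtration.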

[3] = [3H]rauwolscine, LM(tk-) cell line L-α2A, SEM and n in lines below, read-out: pKi alpha-2 2a (converted)
[4] = [3H]prazosin, cloned human receptor in LM(tk-) cell membranes, SEM and n in lines below
[5] = pKi alpha-1 1b, cloned human receptor in LM(tk-) cell membranes, SEM and n in lines below
[6] = cloned human receptor in LM(tk-) cell membranes, SEM and n in lines below, read-out: pKi alpha-1 1b (converted)
[7] = cloned human α1B receptor, LM(tk−) cell membranes, read-out: pKi alpha-1 1b (converted)
[8] = [3H]rauwolscine, human α2A receptor, LM(tk−) cells, read-out: pKi alpha-2 2a (converted)
[9] = [3H]prazosin, cloned human α1A receptor, LM(tk−) cell membranes
[10] = pKi alpha-1 1b, cloned human α1B receptor, LM(tk−) cell membranes

Row | SMILES | Ki (α2A receptor) [nM] | Ki [1] [nM] | Ki [2, 7] [nM] | Ki (α2A receptor; [8]) [nM] | Ki [1, 9] [nM] | Ki [2, 10] [nM] | other results
1 | CC1=C(C(N)=O)C(c2cccc([N+](=O)[O-])c2)C(C(=O)NCCCN2CCC(c3ccccc3)(c3ccccc3)CC2)=C(C)N1 (stereo not drawn) [Example 61, 5-Carboxamido-1,4-dihydro-2,6-dimethyl-4-(3-nitrophenyl)-3-{N-[3-(4,4-diphenylpiperidin-1-yl)propyl]}carboxamidopyridine] |  |  |  |  |  |  | Ki (α2A receptor; [3]): 759 nM; Ki [1, 4]: 851 nM; Ki [2, 5]: 427 nM
2 | CC1=C(C(=O)NCCCN2CCC(c3ccccc3)(c3ccccc3)CC2)C(c2ccc([N+](=O)[O-])cc2)c2c([nH]c(=O)[nH]c2=O)N1 (stereo not drawn) [Example 64] |  |  |  |  |  |  | Ki (α2A receptor; [3]): 692 nM; Ki [1, 4]: 490 nM; Ki [2, 5]: 355 nM
3 | CCC1=C(C(=O)NCCCN2CCC(c3ccccc3)(c3ccccc3)CC2)C(c2ccc([N+](=O)[O-])cc2)C(C(=O)OC)=C(C)N1 (stereo not drawn) [Example 73, 2-Ethyl-1,4-dihydro-5-methoxycarbonyl-6-methyl-4-(4-nitro) phenyl-3-(N-(3-(4,4-diphenylpiperidin-1-yl)propyl))carboxamidopyridine] | 794 | 204 |  |  |  |  | Ki [2, 6]: 148 nM
4 | COC(=O)C1=C(C)NC(c2ccccc2)=C(C(=O)NCCCN2CCC(c3ccccc3)(c3ccccc3)CC2)C1c1ccc([N+](=O)[O-])cc1 (stereo not drawn) [Example 78, 1,4-Dihydro-5-methoxycarbonyl-6-methyl-4-(4-nitro)phenyl-2-phenyl-3-(N-(3-(4,4-diphenylpiperidin-1-yl)propyl))carboxamidopyridine hydrochloride hydrate] | 724 | 178 |  |  |  |  | Ki [2, 6]: 110 nM
5 | CCC1=C(C(=O)NCCCN2CCC(c3ccccc3)(c3ccccc3)CC2)C(c2ccc([N+](=O)[O-])cc2)C(C(N)=O)=C(C)N1 (stereo not drawn) [Example 81, 5-carboxamido-2-ethyl-1,4-dihydro-6-methyl-4-(4-nitro)phenyl-3-(N-(3-(4,4-diphenylpiperidin-1-yl)propyl))carboxamidopyridine hydrochloride] |  |  |  |  |  |  | Ki (α2A receptor; [3]): 178 nM; Ki [1, 4]: 407 nM; Ki [2, 5]: 240 nM
6 | CCOC(=O)C1=C(CC(=O)NCCCN2CCC(c3ccccc3)(c3ccccc3)CC2)NC(C)=C(C(=O)OC)C1c1ccc([N+](=O)[O-])cc1 (stereo not drawn) [Example 89, 3-Ethoxycarbonyl-1,4-dihydro-5-methoxycarbonyl-6-methyl-4-(4-nitro)phenyl-2-(N-(3-(4,4,-diphenylpiperidin-1-yl)propyl)carboxamido)methylpyridine, fumarate salt] | 2340 | 347 | 141 |  |  |  | 
7 | COC(=O)C1=C(C)N(C)C(C)=C(C(=O)OCCCN2CCC(c3ccccc3)(c3ccccc3)CC2)C1c1ccc([N+](=O)[O-])cc1 (stereo not drawn) [Example 92, 1,4-Dihydro-5-methoxycarbonyl-1,2,6-trimethyl-4-(4-nitrophenyl)-3-[3-(4,4-diphenylpiperidin-1-yl)propoxy]carbonylpyridine hydrochloride hydrate] | 3160 | 209 | 58.9 |  |  |  | 
8 | COc1ccc(C2(c3ccccc3)CCN(CCCNC(=O)C3=C(C)NC(C)=C(C(N)=O)C3c3ccc([N+](=O)[O-])cc3)CC2)cc1 (stereo not drawn) [Example 98, 5-Carboxamido-1,4-dihydro-3-{N-[3-(4-(4-methoxyphenyl)-4-phenylpiperidin-1-yl)propyl]}carboxamido-2,6-dimethyl-4-(4-nitrophenyl)pyridine hydrochloride] |  |  |  | 355 | 1100 | 302 | 
9 | CCC1=C(C(N)=O)C(c2ccc([N+](=O)[O-])cc2)C(C(=O)NCCCN2CCC(O)(c3ccccc3)CC2)=C(CC)N1 (stereo not drawn) [Example 100, 5-Carboxamido-2,6-diethyl-1,4-dihydro-3-{N-(3-(4-hydroxy-4-phenylpiperidin-1-yl)propyl]}carboxamido-4-(4-nitrophenyl)pyridine hydrochloride hydrate] |  |  |  | 794 | 4900 | 1480 | 
10 | CCC1=C(C(N)=O)C(c2ccc([N+](=O)[O-])cc2)C(C(=O)NCCCN2CCC(c3ccc(OC)cc3)(c3ccc(OC)cc3)CC2)=C(CC)N1 (stereo not drawn) [Example 103, 5-Carboxamido-2,6-diethyl-1,4-dihydro-3-{N-[3-(4,4-bis-(4-methoxyphenyl)piperidin-1-yl)propyl]}carboxamido}-4-(4-nitrophenyl)pyridine hydrochloride] | 490 | 2510 | 182 |  |  |  | 
11 | CCC1=C(C(N)=O)C(c2ccc([N+](=O)[O-])cc2)C(C(=O)NCCCN2CCC3(CC2)C(=O)NCN3c2ccccc2)=C(CC)N1 (stereo not drawn) [Example 105, 5-Carboxamido-2,6-diethyl-1,4-dihydro-4-(4-nitrophenyl)-3-{N-[3-(1-phenyl-4-oxo-1,3,8-triazaspiro[4.3]decan-8-yl)propyl]}carboxamidopyridine hydrochloride hydrate] | 1260 | 2450 | 3160 |  |  |  | 
12 | CCC1=C(C(N)=O)C(c2ccc([N+](=O)[O-])cc2)C(C(=O)NCCCN2CCC(C)(c3ccccc3)CC2)=C(CC)N1 (stereo not drawn) [Example 106, 5-Carboxamido-2,6-diethyl-1,4-dihydro-3-{N-[3-(4-Methyl-4-phenylpiperidin-1-yl)propyl]}carboxamido-4-(4-nitrophenyl)pyridine hydrochloride hydrate] |  |  |  | 324 | 2400 | 933 | 
13 | CCC1=C(C(=O)NCCCN2CCC(c3ccccc3)(c3ccccc3)CC2)C(c2cccc(OC)c2)C(C(=O)NCCCN2CCC(c3ccccc3)(c3ccccc3)CC2)=C(CC)N1 [Example 112, 2,6-Diethyl-1,4-dihydro-4-(3-methoxyphenyl)-3,5-bis(N-(3-(4,4-diphenylpiperidin-1-yl)propyl)carboxamido)-pyridine] |  |  |  | 257 | 30.2 | 23.4 | 
14 | CCC1=C(C(=O)NCCCN2CCC(c3ccccc3)(c3ccccc3)CC2)C(c2cccc(OC)c2)C(C(N)=O)=C(C)N1 (stereo not drawn) [Example 113, 5-Carboxamide-2-ethyl-1,4-dihydro-4-(3-methoxyphenyl)-6-methyl-3-(N-(3-(4,4-diphenylpiperidin-1-yl)propyl)carboxamido)-pyridine] |  |  |  | 759 | 692 | 347 | 
15 | CCC1=C(C(=O)NCCCN2CCC(c3ccccc3)(c3ccccc3)CC2)C(c2ccc(N)cc2)C(C(=O)OC)=C(C)N1 (stereo not drawn) [Example 114, 4-(4-Aminophenyl)-2-ethyl-1,4-dihydro-5-methoxycarbonyl-6-methyl-3-(N-(3-(4,4-diphenylpiperidin-1-yl)propyl)carboxamido)-pyridine] | 2090 | 550 | 204 |  |  |  | 
